The target in the test is DNA repair protein RAD51 homolog 1 (Homo sapiens) (UniProt Q06609). Kind of test: RAD51 recombination inhibitor potency, dose response, biochemical, homologous recombination, fluorescence, second set (AID 1437). To be noted: RAD51 homologous recombination biochemical assay.

The source made the active and inactive calls. The rule behind the calls is not given here. Bounds are passed on as bounds.

DNA repair protein RAD51 homolog 1 (Homo sapiens), sequence (Q06609 whole entry, looked up): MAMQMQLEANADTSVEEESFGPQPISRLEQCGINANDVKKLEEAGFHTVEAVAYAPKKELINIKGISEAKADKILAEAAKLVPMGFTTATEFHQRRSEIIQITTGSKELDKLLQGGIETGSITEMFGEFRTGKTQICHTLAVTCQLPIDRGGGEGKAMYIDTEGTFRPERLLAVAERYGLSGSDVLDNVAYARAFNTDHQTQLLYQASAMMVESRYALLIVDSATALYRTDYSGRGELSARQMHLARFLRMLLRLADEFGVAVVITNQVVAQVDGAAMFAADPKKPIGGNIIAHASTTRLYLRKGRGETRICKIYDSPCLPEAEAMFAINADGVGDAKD

Usually IC50 stands for the point on the concentration scale where inhibition reaches its midpoint. For `Cc1ccc(C2/C(=C(\O)c3ccc4c(c3)OCCO4)C(=O)C(=O)N2CCCN(C)C)o1` (stereo not drawn), the IC50 was > 53 µM (inactive).

Regarding `COC(=O)c1ccc(=O)c2nc3/c(=C/O)c(O)cc(=O)c3[nH]c12`, the IC50 is 24.8 µM.

`Cc1cc(C)cc(N2C(=O)CC(Sc3nnnn3-c3ccccc3)C2=O)c1` (stereo not drawn): the IC50 is > 53 µM (inactive).
